Test results from BigSolDB 2.1.

In the case of CO[C@@]1(NC(=O)CSCC#N)C(=O)N2C(C(=O)O)=C(CSc3nnnn3C)CS[C@@H]21, the solubility (mole fraction) (in ethanol, 278.15 K) is reported as 0.000266, the solubility (mole fraction) (in ethanol, 283.15 K) is reported as 0.000276 and the solubility (mole fraction) (in ethanol, 288.15 K) is reported as 0.000343. For the same compound, the solubility (mole fraction) (in ethanol, 293.15 K) was 0.000435, the solubility (mole fraction) (in ethanol, 298.15 K) was 0.00049 and the solubility (mole fraction) (in ethanol, 303.15 K) was 0.000659. For the same compound, the solubility (mole fraction) (in methanol, 278.15 K) was 0.00163, the solubility (mole fraction) (in methanol, 283.15 K) was 0.00187 and the solubility (mole fraction) (in methanol, 288.15 K) was 0.00222. The solubility (mole fraction) (in methanol, 293.15 K) was 0.00273, the solubility (mole fraction) (in methanol, 298.15 K) was 0.00364 and the solubility (mole fraction) (in methanol, 303.15 K) was 0.00445.
